Data on 50 compounds can be found in patent publication US9779901B2, “High temperature material compositions for high temperature thermal cutoff devices” (Therm-O-Disc, Incorporated, priority 2008, dated 2017).

For data set [1] the following is noted: 20° C.; cited from earlier work.
For data set [2] the following is noted: estimated melting point temperature ranges of candidate organic compounds (Table 2); some compounds have several values, partly in parentheses, because analytic techniques differ; cited from earlier work.

Like-named read-outs stand apart in the source and are kept apart here.

Turning to `OCC(CO)(CO)CO` [pentaerythritol, 2,2-Bis(hydroxymethyl)-1,3-propanediol], the “Vapor Pressure” value in data set [1] was <1 mmHG (20° C.).
`O=[N+]([O-])c1cccc2nc[nH]c12` [Example 12] registered a Melting Point of 242 °C. In addition, the “Melting Point” value in data set [2] is 242° ° C.
Compound `COc1ccccc1[C@H](C)C(=O)N1C[C@@H]2[C@H](C1)C(c1ccccc1)(c1ccccc1)CC[C@@]2(O)c1ccccc1OC` [Example 34] returned a Melting Point of 244 °C. Besides, in data set [2], the “Melting Point” value is reported as 244° ° C.
The compound `O=C1C=Cc2c(ccc3c2ccc2ccccc23)C1=O` [Example 142] had a Melting Point of 260 to 261 °C. The “Melting Point” value in data set [2] is reported as 260-261° ° C.
Regarding `NC(=O)C1c2ccccc2-c2ccccc21` [Example 86], the Melting Point is 251 °C. In addition, the “Melting Point” value in data set [2] was 251° ° C.
The compound `O=c1ccc2ncc[nH]c-2c1` [Example 90] returned a Melting Point of 252 to 254 °C. Further, in data set [2], the “Melting Point” value is recorded as 252-254° ° C.
`O=c1ccc2c(cc3ccc4cccc5ccc2c3c45)c1=O` [Example 139] gave a Melting Point of 260 °C. Further, the “Melting Point” value in data set [2] is 260° ° C.
`O=c1[nH]c(=S)oc2ccccc12` [Example 98] showed a Melting Point of 253 °C. For the same compound, the “Melting Point” value in data set [2] is 253° ° C.
Consider `O=[N+]([O-])c1nc2ccccc2[nH]1` [Example 127], for which the Melting Point turned out to be 258 °C. Further, the “Melting Point” value in data set [2] was 258° ° C.
For the compound `c1ccc2c(c1)[nH]c1ccc3cnccc3c12` [Example 99], the Melting Point was in the range of 254 to 255 °C. In data set [2], the “Melting Point” value is 254-255° ° C.
Compound `CCCCCCCCn1cnc2c(=S)nc[nH]c21` [Example 188] yielded a Melting Point of 264 to 266 °C. The “Melting Point” value in data set [2] is reported as 264-266° ° C.
For the compound `Cc1nc2c(C)c(C)c(C)c(C)c2[nH]1` [Example 209], the Melting Point stood at 265 °C. In addition, the “Melting Point” value in data set [2] is on record as 265° ° C.
`C(#Cc1c2ccccc2c(C#Cc2ccccc2)c2ccccc12)c1ccccc1` [Example 88]: the Melting Point lay within 251 to 253 °C. Moreover, in data set [2], the “Melting Point” value is on record as 251-253° ° C.
`Nc1nc(N)nc(Cc2ccccc2)n1` [Example 39] displayed a Melting Point of 245 °C. For the same compound, the “Melting Point” value in data set [2] was 245° ° C.
For `C1=CCC2=C(C1)CC1=C(C2)CC2=C(CC=CC2)C1` [Example 4], the Melting Point was in the range of 241 to 242 °C. Besides, in data set [2], the “Melting Point” value is on record as 241-242° ° C.
`Cn1ccc(N)nc1=O` [Example 145] gave a Melting Point of 260 to 265 °C. For the same compound, the “Melting Point” value in data set [2] is reported as 260-265° ° C.
In turn, `c1cnc2[nH]cnc2n1` [Example 128] yielded a Melting Point of 258 to 259 °C. Further, the “Melting Point” value in data set [2] was 258-259° ° C.
In the case of `Cc1cc(=O)oc2cccc(O)c12` [Example 169], the Melting Point was found to be 263 °C. Besides, the “Melting Point” value in data set [2] was 263° ° C.
`O=[N+]([O-])c1ccc(NN=Cc2ccccn2)cc1` [Example 181] had a Melting Point of 264 °C. In addition, in data set [2], the “Melting Point” value is 264° ° C.
The compound `Nc1cc(N)n(N)c(=S)n1` [Example 197] had a Melting Point of 265 °C. Further, the “Melting Point” value in data set [2] is on record as 265° ° C.
On to `CC1(C)CNC(=O)NC1` [Example 107], for which the Melting Point was in the range of 255 to 257 °C. For the same compound, in data set [2], the “Melting Point” value is recorded as 255-257° ° C.
As to `O=[N+]([O-])c1ccc(NN=Cc2ccccc2Cl)cc1` [Example 73], the Melting Point is 249 °C. Besides, the “Melting Point” value in data set [2] is given as 249° ° C.
In turn, `NC1=NCCC(CC(N)C(=O)O)N1` (stereo not drawn) [Example 124] had a Melting Point of 258 to 259 °C. For the same compound, in data set [2], the “Melting Point” value is 258-259° ° C.
In turn, `Nc1ccn(C2C=CC(N)C(C(=O)O)O2)c(=O)n1` (stereo not drawn) [Example 35] had a Melting Point of 244 to 245 °C. In addition, the “Melting Point” value in data set [2] was 244-245° ° C.
`Cc1[nH]nc2c1N(c1ccccc1)C(=O)CC(=O)N2C` [Example 159] gave a Melting Point of 262 °C. Moreover, the “Melting Point” value in data set [2] is on record as 262° ° C.
Compound `NNc1nnc(Cc2ccncc2)c2ccccc12` [Example 149] showed a Melting Point of 261 to 264 °C. The “Melting Point” value in data set [2] was 261-264° ° C.
As to `c1cc2c3c(cccc3c1)-c1nc3ccccc3nc1-2` [Example 10], the Melting Point was 241 °C. In addition, in data set [2], the “Melting Point” value is 241° ° C.
As to `O=C1NC(=O)C2(CCC(O)C2)c2ccncc21` (stereo not drawn) [Example 8], the Melting Point was in the range of 240 to 243 °C. Also, the “Melting Point” value in data set [2] is reported as 240-243° ° C.
As to `O=[N+]([O-])c1c2ccccc2c([N+](=O)[O-])c2ccccc12` [Example 171], the Melting Point came out at 263 °C. For the same compound, the “Melting Point” value in data set [2] is on record as 263° ° C.
`c1ccc(-c2n[nH]c(-c3ccccc3)c2-c2ccccc2)cc1` [Example 189] had a Melting Point of 265 °C. For the same compound, the “Melting Point” value in data set [2] is listed as 265° ° C.
`CC(=O)Nc1cnn2c(C)nc3ccccc3c12` [Example 125] returned a Melting Point of 258 to 260 °C. In addition, the “Melting Point” value in data set [2] was 258-260° ° C.
On to `CC1(C)CC2(CC(C)(C)NC(=O)N2)NC(=O)N1` [Example 190], for which the Melting Point fell in the range of 265 to 268 °C. Further, the “Melting Point” value in data set [2] is given as 265-268° ° C.
The compound `O=C1C(=O)c2cc3ccccc3cc2-c2ccccc21` [Example 143] returned a Melting Point of 260 to 262 °C. In addition, the “Melting Point” value in data set [2] is on record as 260-262° ° C.
Compound `CC1(C)Oc2ccc(C#N)cc2[C@H](n2ccccc2=O)[C@H]1O` [Example 45] had a Melting Point of 245 to 246 °C. Further, in data set [2], the “Melting Point” value is listed as 245-246° ° C.
As for `O=C1N=C(NO)c2ccccc21` [Example 182], the Melting Point is 264 to 266 °C. For the same compound, the “Melting Point” value in data set [2] is 264-266° ° C.
`Cc1nc2ccccc2c2ccc([N+](=O)[O-])cc12` [Example 23] showed a Melting Point of 243 to 245 °C. Besides, the “Melting Point” value in data set [2] is on record as 243-245° ° C.
In turn, `O=C1CC(=O)N(c2ccccc2)C(=O)N1` [Example 160] returned a Melting Point of 262 °C. Moreover, the “Melting Point” value in data set [2] is given as 262° ° C.
On to `O=C1c2ccccc2-c2oc(=O)c3ccccc3c21` [Example 156], for which the Melting Point lay within 261 to 262 °C. Also, in data set [2], the “Melting Point” value was 261-262° ° C.
As to `O=c1c(=C2Cc3cccc4cccc2c34)c2cccc3cccc1c32` [Example 137], the Melting Point fell in the range of 259 to 260 °C. In data set [2], the “Melting Point” value was 259-260° ° C.
In turn, `CCNC(=O)c1cc2c(cn1)[nH]c1ccccc12` [Example 61] came in with a Melting Point of 247 to 249 °C. In addition, in data set [2], the “Melting Point” value is given as 247-249° ° C.
As for `O=C(C=Cc1ccccc1)NCCCCNC(=O)C=Cc1ccccc1` [Example 74], the Melting Point fell in the range of 249 to 253 °C. In addition, the “Melting Point” value in data set [2] is on record as 249-253° ° C.
As to `Oc1ccc(-c2cnc(-c3cccnc3)o2)cc1` [Example 115], the Melting Point was in the range of 255 to 256 °C. Further, the “Melting Point” value in data set [2] is on record as 255-256° ° C.
As for `COc1ncnc2nc[nH]c12` [Example 161], the Melting Point fell in the range of 262 to 263 °C. In addition, in data set [2], the “Melting Point” value is given as 262-263° ° C.
The compound `Nc1nnc(N)n1N` [Example 158] had a Melting Point of 262 to 263 °C. In addition, in data set [2], the “Melting Point” value is recorded as 262-263° ° C.
For `Nc1ccc(C(=O)c2ccc(N)cc2)cc1` [Example 33], the Melting Point lay within 244 to 245 °C. Also, the “Melting Point” value in data set [2] is on record as 244-245° ° C.
Consider `CN1CC2CC(NC(=O)c3n[nH]c4ccccc34)CC(C1)N2C` (stereo not drawn) [Example 118], for which the Melting Point was in the range of 256 to 257 °C. Besides, the “Melting Point” value in data set [2] is 256-257° ° C.
On to `O=c1ccc2c(O)cccc2o1` [Example 31], for which the Melting Point lay within 244 to 247 °C. For the same compound, in data set [2], the “Melting Point” value is 244-247° ° C.
Regarding `O=c1[nH][nH]c2ccccc12` [Example 44], the Melting Point is 245 to 247 °C. In addition, the “Melting Point” value in data set [2] is 245-247° ° C.
As for `Oc1cc2c3ccccc3ccc2c2ccccc12` [Example 68], the Melting Point fell in the range of 248 to 250 °C. For the same compound, in data set [2], the “Melting Point” value is listed as 248-250° ° C.
`c1cnc2c(ccc3nccnc32)n1` [Example 20] returned a Melting Point of 242 °C. Also, the “Melting Point” value in data set [2] is reported as 242° ° C.
